From patent publication US10538516B2, “Oxadiazole derivative and pharmaceutical containing same” (National Center for Geriatrics and Gerontology, priority 2015, dated 2020)
Where two headings read alike, the source gives them in different places.

Biological target: T1, GAβ-dependent amyloid fibril formation (Human Aβ1-40 + GM1-containing liposome) (Homo sapiens, UniProt P05067)
T1 construct: Human Aβ1-40 (cat. #4307-v, prepared by Peptide Institute); purchased Peptide Institute 4307-v
Experiment: Thioflavin T (ThT) assay of GAβ-dependent amyloid fibril formation (Aβ1-40 with GM1-containing liposome)
Type: biochemical
Description: <3. Evaluation of the Compounds Based on the Inhibitory Activity Against Amyloid Fibril Formation in Thioflabin T (ThT) Assay>
Inhibitory activity against GAβ-dependent amyloid fibril formation of the above compounds 1 to 133 and 142 to 267 were evaluated in ThT assay.
(1) Preparation of Aβ Solution
Human Aβ1-40 (cat. #4307-v, prepared by Peptide Institute) was dissolved in a 0.02% ammonia solution (400 μM), and the mixture was treated in an ultracentrifuge (S110AT rotor, Hitachi) at 100,000 rpm for 3 hours. Approximately two-thirds of the upper layer of the supernatant was recovered and protein concentration was measured. The Aβ solution was aliquoted and stored at −80° C. until use, was melted immediately before use, and was diluted to 75 μM using phosphate buffer (PBS: cat. #10010, manufactured by Life Technologies).
(2) Preparation of GM1-Containing Liposome
Using a mixed solution of chloroform/methanol (1:1) as a solvent, a mixed solution of 100 mM each of cholesterol and sphingomyelin (both manufactured by Sigma-Aldrich) was prepared. To this mixed solution, GM 1 (cat. #1061, manufactured by Matreya Co.) was dissolved to make a solution of 50 mM concentration. This lipid mixed solution was aliquoted into glass test tubes and stored at −20° C. until use, was melted before use, was mixed with chloroform/methanol mixture (1:1) and mixed, and then the solvent was removed by applying nitrogen gas to the suspension. The dried lipid mixture was resuspended in PBS to be a GM1 concentration of 2.5 mM, and frozen and thawed 5 times with liquid nitrogen. The lipid suspension was centrifuged at 15,000 rpm for 10 minutes and the precipitate was resuspended in PBS to be a GM1 concentration of 2.5 mM. Using an ultrasonic crusher (XL-2000, MISONIX Co., Ltd.) equipped with a microchip, ultrasonic treatment was repeated on ice for 10 seconds until the suspension became transparent, and GM1-containing liposome was prepared. Immediately prior to use, PBS was added and diluted to a GM 1 concentration of 75 μM.
(3) Preparation of Compound Solution
Compounds 1 to 133 and 142 to 267 were prepared as 10 mM and 2 mM solution in DMSO, respectively. And each solution was diluted to 75 μM or 15 μM with PBS immediately prior to use.
(4) GAβ-Dependent Amyloid Fibril Formation
To a 96-well microplate, 5 μl each of the 75 μM Aβ solution prepared above (1), the compound solution prepared in (3) or 0.75% DMSO was mixed and incubated at room temperature for 10 minutes. Then, 5 μl each of 750 μM GM1-containing liposome prepared in (2) was added to each well and incubated at 37° C. for 18 hours.
ThT (manufactured by Sigma-Aldrich) was adjusted to 5 μM using 50 mM glycine-NaOH buffer (pH 8.5). Immediately before measurement, 10 μl from each well of (4) was transferred to a 96-well black plate. 50 μl of 5 μM ThT solution was added from each injector to each well using a multi-plate reader (ARVO-HTS, manufactured by Perkin Elmer), and then the optimal fluorescence of ThT bound to amyloid fiber (excitation wavelength 430 nm, fluorescence wavelength 490 nm) was measured.
The fluorescence intensity of ThT indicates the degree of amyloid fibrils formation. By calculating the ratio of the ThT fluorescence intensity between addition of the compound and without addition of the compound, the inhibition rate against amyloid fibril formation by the compound was calculated.

[1] = inhibition rate against amyloid fibril formation, final concentration of the compound 25 μM, read-out: Inhibitory activity ABC evaluation
[2] = read-out: ThT Inhibitory activity (% inhibition)
[3] = @25 μM, read-out: ThT Inhibitory activity (% inhibition)

T1 sequence (P05067 672-711 limits assumed): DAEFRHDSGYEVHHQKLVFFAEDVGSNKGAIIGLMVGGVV

SMILES | inhibition at 25 µM [1] [%] | inhibition at 5 µM [2] [%] | inhibition at 25 µM [3] [%]
O=C1CC(c2nc(-c3ccc(OC(F)F)cc3)no2)CN1c1ccc(Cl)cn1 (stereo not shown) [Compound 62, 1-(5-chloropyridin-2-yl)-4-{3-[4-(difluoromethoxy)phenyl]-1,2,4-oxadiazol-5-yl}pyrrolidin-2-one] | 40 to 80 | – | –
O=C(N[C@@H](CO)c1nc(-c2ccc(OC(F)(F)F)cc2)no1)c1cccc(Cl)c1 [Compound 63, (S)-3-chloro-N-(2-hydroxy-1-[3-{4-(trifluoro-methoxy)phenyl}-1,2,4-oxadiazol-5-yl]ethyl) benzamide] | > 80 | 53 | 99
O=C1CC(c2nc(-c3ccc(OC(F)(F)F)cc3)no2)CN1Cc1ccc(Cl)cc1 (stereo not shown) [Compound 64, 1-(4-chlorobenzyl)-4-{3-[4-(trifluoromethoxy)phenyl]-1,2,4-oxadiazol-5-yl}pyrrolidin-2-one] | 40 to 80 | – | –
CS(=O)(=O)Nc1ccc(-c2noc(C3CC(=O)N(c4ccc(Cl)cc4)C3)n2)cc1 (stereo not shown) [Compound 65, N-(4-[5-{1-(4-chlorophenyl)-5-oxopyrrolidin-3-yl}-1,2,4-oxadiazol-3-yl]phenyl) methane-sulfonamide] | 40 to 80 | – | –
O=C1CC(c2nc(-c3cccc(OC(F)F)c3)no2)CN1c1ccc(Cl)cc1 (stereo not shown) [Compound 66, 1-(4-chlorophenyl)-4-[3-{3-(difluoro-methoxy)phenyl}-1,2,4-oxadiazol-5-yl]pyrrolidin-2-one] | 40 to 80 | – | –
O=C1CC(c2nc(-c3ccccc3OC(F)(F)F)no2)CN1c1ccc(Cl)cc1 (stereo not shown) [Compound 67, 1-(4-chloro-phenyl)-4-[3-{2-(trifluoro-methoxy)phenyl}-1,2,4-oxadiazol-5-yl]pyrrolidin-2-one] | 40 to 80 | – | –
O=C(c1ccc(Cl)cc1)N1CC(c2nc(-c3ccc(OC(F)(F)F)cc3)no2)C1 [Compound 68, (4-chloro-phenyl)(3-[3-{4-(trifluoro-methoxy)phenyl}-1,2,4-oxadiazol-5-yl]azetidin-1-yl)methanone] | 40 to 80 | – | –
O=C(N[C@@H](CO)c1nc(-c2ccc(OC(F)(F)F)cc2)no1)c1ccc(F)cc1 [Compound 69, (S)-4-fluoro-N-(2-hydroxy-1-[3-{4-(trifluoro-methoxy)phenyl}-1,2,4-oxadiazol-5-yl]ethyl) benzamide] | > 80 | – | 87
COc1cccc2c(CC(=O)NCCc3nc(-c4c[nH]c5ccccc45)no3)c[nH]c12 [Compound 70, N-[2-{3-(1H-indol-3-yl)-1,2,4-oxadiazol-5-yl}ethyl]-2-(7-methoxy-1H-indol-3-yl) acetamide] | < 40 | – | –
O=C(NCCc1nc(-c2c[nH]c3ccccc23)no1)c1ccc(Cl)cc1 [Compound 71, N-[2-{3-(1H-indol-3-yl)-1,2,4-oxadiazol-5-yl}ethyl]-4-chloro-benzamide] | 40 to 80 | – | –
O=C1CC(CO)(c2nc(-c3ccc(O)cc3)no2)CN1c1ccc(Cl)cc1 (stereo not shown) [Compound 72, 1-(4-chloro-phenyl)-4-(hydroxy-methyl)-4-{3-(4-hydroxyphenyl)-1,2,4-oxadiazol-5-yl} pyrrolidin-2-one] | > 80 | 47 | 81
O=C1CC(CO)(c2nc(-c3ccc4c(c3)OC(F)(F)O4)no2)CN1c1ccc(Cl)cc1 (stereo not shown) [Compound 73, 1-(4-chlorophenyl)-4-[3-(2,2-difluorobenzo[d][1,3]dioxol-5-yl)-1,2,4-oxadiazol-5-yl]-4-(hydroxymethyl)pyrrolidin-2-one] | > 80 | – | –
O=C1CC(c2nc(-c3ccc(O)c(F)c3)no2)CN1c1ccc(Cl)cc1 (stereo not shown) [Compound 74, 1-(4-chloro-phenyl)-4-{3-(3-fluoro-4-hydroxyphenyl)-1,2,4-oxadiazol-5-yl}pyrrolidin-2-one] | 40 to 80 | – | –
O=C(N[C@@H](CCO)c1nc(-c2ccc(OC(F)(F)F)cc2)no1)c1ccc(Cl)cc1 [Compound 75, (S)-4-chloro-N-(3-hydroxy-1-[3-{4-(trifluoro-methoxy)phenyl}-1,2,4-oxadiazol-5-yl]propyl) benzamide] | 40 to 80 | – | –
